The record followed here is patent publication US20210386792A1, “A METHOD FOR INCREASING POPULATION OF SPERMATOGONIAL STEM CELLS” (priority 2018, published 2021).

In one experiment the test system is C-iPS EC. The experiment is described as follows: GDNF ELISA in conditioned media from control iPS-derived ECs. The class given is cell-based, human. The settings on record: 2 ng/ml FGF-2. How it is done: Testis, lung, or liver ECs were plated (10,000 cells ml^−1) on 12 well dishes coated with 0.1% gelatin and cultured for 24 hours. Conditioned media was harvested at 24 and 48 hours after FGF-2 (2 ng ml^−1, 20 ng ml^−1 and 50 ng ml^−1) treatment and analyzed by ELISA for GDNF (Promega GDNF Emax immunoassay system, #G7621) following the manufacturer's instruction. Statistics was analyzed using Graph Pad Prism. For quantification of Gdnf mRNA, total RNA was isolated from the cells using Direct-zol RNA MiniPrep (Zymo Research) and reverse transcribed using High Capacity cDNA Reverse Transcription Kit (Appliedbiosystems), according to the manufacturer's instructions. All gene expression levels were normalized to GAPDH mRNA levels.
To generate iPSC lines, either human fibroblasts/stromal cells were transduced with pMXs-based retroviral supernatant with human OCT4, SOX2, KLF4, or MYC as described^30, or mononuclear cells were infected with pHage2-CMV-RTTA-W and pHage-Tet-hSTEMMCA-loxP virus as described^31. All cells were culture on 0.1% gelatin-coated dishes in human endothelial cell medium (Lonza; EGM®-MV Bulletkit) with 50 ng ml^−1 additional VEGF. 500,000 disaggregated single embryonic bodies from human iPSCs were cultured for 48 hours. Non-adherent cells were gently removed and adherent cells were cultured for 1-2 passages. […]

The next experiment deals with Thy1.2+GFP+ SSCs. Nature of the experiment: Colony formation of GFP+ SSCs co-cultured with TECs with added growth factors. The settings on record: Thy1.2+GFP+ cells co-cultured with TECs, factors added to growth media. The class given is cell-based, mouse. How it is done: 2D co-cultures were generated by plating 2.7×10^5 cultured GFP^+ SSCs on STO feeder cells 28 or on top of 200 μl of solid matrigel mixture containing TEC (BD bioscience) in serum free medium 28 with exogenous GDNF 10 ng ml^−1 (R&D system), GFR^+ 75 ng ml^−1 (R&D system) and FGF2 1 ng ml^−1 (BD Biosciences). Average GFP^+ SSC colony area was measured and GFP^+ SSC cell number were counted 8 days after plating. Each condition was performed in triplicate.
FIG. 4. a. Quantication of GDNF levels by ELISA in conditioned media from TECs isolated from Fgfr1+/+ or Fgfr1−/− mice. Bar=1 cm. b. Images of testes from busulfan-treated (45 mgkg-1) WT mice 12 weeks post transplantation with PBS(Φ), Fgfr1+/+ TECs or Fgfr1/−/− TECs. Testis weights are indicated on the right (n=4). c. H&E images of testis sections from control (Fgfr1+/+) or endothelialspecic deletion of Fgfr1 (Fgfr1iΔEC/iΔEC) mice at 12 weeks after tamoxifen treatment to induce fgfr1 deletion from ECs. Red stars indicate empty seminiferous tubule. Bar=100 μm. d. Representative bright-eld and GFP images of GFP+ SSCs co-cultured with TECs with the addition of FGF±GDNF at the indicated concentrations after 4 weeks. SSC colony number and size over time are shown on right. e. Immunouorescence images of testis sections from Fgfr1+/+ or Fgfr1iΔEC/iΔEC mice 5 weeks after busulfan treatment at the indicated concentrations. […]

In the case of fibroblast growth factor-2 [FGF-2], the “GDNF production after FGF2 treatment” value with C-iPS EC is given as “stimulated robust GDNF production”. Further, the “SSC colony formation (number and size of colonies)” value in the experiment with Thy1.2+GFP+ SSCs was “sufficient for SSC maintenance and expansion”.
